Test results as given in patent US20100081679A1, “DIAMINOPYRIMIDINES AS FUNGICIDES” (Bayer CropScience AG, priority 2007, published 2010).
Marks after values point to notes of the source that are not given here.

Assay: logP determination via retention times, calibrated with unbranched alkan-2-ones
Type: physicochemical
Conditions: HPLC on reversed-phase C 18, EEC Directive 79/831 Annex V.A8; method *: 40° C., 0.1% aqueous formic acid and acetonitrile, linear gradient 10% to 95% acetonitrile
For CC(=O)c1cc(Nc2ncc(Cl)c(NCC3CC3)n2)ccc1O [compound 553], the logP was 1.85*. For O=CNc1cccc(Nc2ncc(Cl)c(NCC3CC3)n2)c1 [compound 546], the logP was 1.46*. For CC(C)(C)OC(=O)Nc1ccc(Nc2ncc(Cl)c(NCC3CC3)n2)cc1 [compound 522], the logP was 2.18*. With FC(F)(F)Oc1ccc(Nc2ncc(Br)c(NCC3CC3)n2)cc1 [compound 476] the logP was 3.1*. With O=C1Cc2cc(Nc3ncc(Cl)c(NCC4CC4)n3)ccc2N1 [compound 516] the logP was 1.31*. With COC(=O)Cc1cccc(Nc2ncc(Cl)c(NCC3CC3)n2)c1 [compound 504] the logP was 1.92*.

Same assay, conditions: HPLC on reversed-phase C 18, method **: 43° C.; 0.1% aqueous phosphoric acid and acetonitrile; linear gradient 10% to 95% acetonitrile
For CN(CC1CC1)c1nc(Nc2cccc(N3CCCC3=O)c2)ncc1Cl [compound 964], the logP was 2.21**. In the case of CSc1cccc(Nc2ncc(Cl)c(N(C)C3CC3)n2)c1 [compound 738], the logP is reported as 3.59**. In the case of CN(CC1CC1)c1nc(Nc2ccccc2)ncc1Cl [compound 963], the logP is reported as 2.72**.

Same assay, conditions: HPLC on reversed-phase C18, method *: 40° C., 0.1% aqueous formic acid and acetonitrile, linear gradient 10% to 95% acetonitrile
In the case of O=CNc1cccc(Nc2ncc(Br)c(NC3CC3)n2)c1 [compound 716], the logP is reported as 1.23*. In the case of COC(=O)Nc1ccc(Nc2ncc(Cl)c(NC(C)C3CC3)n2)cc1 (centres unmarked) [compound 168], the logP is reported as 1.64*. In the case of CC(Nc1nc(Nc2ccc(F)cc2)ncc1Cl)C1CC1 (centres unmarked) [compound 167], the logP is reported as 2.27*. For O=C(Nc1ccccc1)Nc1cccc(Nc2ncc(Cl)c(NC3CC3)n2)c1 [compound 717], the logP was 1.93*. With O=C(Nc1ccccc1)Nc1ccc(Nc2ncc(Cl)c(NC3CC3)n2)cc1 [compound 739] the logP was 1.75*. In the case of COC(C)c1cccc(Nc2ncc(C(F)(F)F)c(NCC3CC3)n2)c1 (racemic) [compound 962], the logP is reported as 3.29*. In the case of CCC(=O)c1ccc(Nc2ncc(Cl)c(NCC3CC3)n2)cc1 [compound 677], the logP is reported as 2.55*. With C#CCS(=O)(=O)c1ccc(Nc2ncc(Cl)c(NC3CC3)n2)cc1 [compound 161] the logP was 2.21*. In the case of CCC(=O)c1cc(Nc2ncc(Br)c(NC3CC3)n2)ccc1O [compound 760], the logP is reported as 2.06*. For N#CCc1cccc(Nc2ncc(C(F)(F)F)c(NC3CC3)n2)c1 [compound 976], the logP was 2.56*. In the case of Oc1ccc(Nc2ncc(Cl)c(NCC3CC3)n2)c(F)c1 [compound 694], the logP is reported as 1.46*. In the case of FC(F)(F)Oc1ccccc1Nc1ncc(Cl)c(NC2CC2)n1 [compound 883], the logP is reported as 3.07*. For COc1ccccc1Nc1ncc(Cl)c(NCC2CC2)n1 [compound 687], the logP was 1.99*. For CC(C)c1cccc(Nc2ncc(C(F)(F)F)c(NC3CC3)n2)c1 [compound 973], the logP was 4.14*. In the case of OCc1cccc(Nc2ncc(Br)c(NC3CC3)n2)c1 [compound 766], the logP is reported as 1.37*. With Clc1ccc(Oc2ccccc2)c(Nc2ncc(Cl)c(NC3CC3)n2)c1 [compound 873] the logP was 4.87*. In the case of Clc1cnc(Nc2cccc(-c3ccco3)c2)nc1NC1CC1 [compound 714], the logP is reported as 2.54*. With CC(C)Sc1ccccc1Nc1ncc(Cl)c(NC2CC2)n1 [compound 885] the logP was 3.72*. With Clc1cnc(Nc2cccc(Cl)c2Cl)nc1NC1CC1 [compound 937] the logP was 3.76*. With COc1cccc(Nc2ncc(Cl)c(NCC3CC3)n2)c1 [compound 668] the logP was 1.97*. In the case of O=C(O)Cc1cccc(Nc2ncc(Cl)c(NC3CC3)n2)c1 [compound 768], the logP is reported as 1.23*. With CC(C)(C)OC(=O)Nc1ccc(Nc2ncc(Cl)c(NC3CC3)n2)cc1 [Example 100] the logP was 2.12*. For COc1cc(Nc2ncc(C(F)(F)F)c(NC3CC3)n2)ccc1Cl [compound 700], the logP was 3.59*. With CCOc1cccc(Nc2ncc(Br)c(NC3CC3)n2)c1 [compound 751] the logP was 2.18*. For CC(=O)c1ccc(Nc2ncc(Cl)c(NCC3CC3)n2)cc1 [compound 678], the logP was 2.13*. In the case of COCc1cccc(Nc2ncc(C(F)F)c(NCC3CC3)n2)c1 [compound 772], the logP is reported as 1.73*.

Same assay, conditions: HPLC on reversed-phase C18, method *: 40° C.; mobile phase 0.1% aqueous formic acid and acetonitrile; linear gradient 10% to 95% acetonitrile
With COc1ccc(Nc2ncc(Cl)c(NC3CC3)n2)cc1 [compound 284] the logP was 1.47*. For CCC(=O)c1ccc(Nc2ncc(Br)c(NC3CC3)n2)cc1 [compound 356], the logP was 2.68*. In the case of FC(F)Oc1cccc(Nc2ncc(Br)c(NC3CC3)n2)c1 [compound 332], the logP is reported as 2.66*. In the case of CS(=O)(=O)c1ccc(Nc2ncc(Br)c(NC3CC3)n2)cc1 [compound 345], the logP is reported as 1.9*. For COc1ccc(Nc2ncc(Br)c(NC3CC3)n2)cc1 [compound 344], the logP was 1.63*. In the case of CCOC(=O)C1(Nc2nc(Nc3ccccc3)ncc2Cl)CC1 [compound 315], the logP is reported as 2.17*. In the case of CC(C)(C)C(=O)Cc1ccc(Nc2ncc(Br)c(NC3CC3)n2)cc1 [compound 355], the logP is reported as 2.39*. In the case of CC(C)(C)C(=O)Nc1cccc(Nc2ncc(Cl)c(NCC3CC3)n2)c1 [compound 312], the logP is reported as 2.14*. In the case of Clc1cnc(Nc2ccc3c(c2)OCO3)nc1NC1CC1 [compound 295], the logP is reported as 1.59*.

Same assay, conditions: HPLC on reversed-phase C18 column (EEC Directive 79/831 Annex V.A8); method *: 40° C.; 0.1% aqueous formic acid and acetonitrile; linear gradient 10% to 95% acetonitrile
For COc1cc(Nc2ncc(Cl)c(NC3CC3)n2)ccc1Cl [compound 256], the logP was 2.53*. For COCC(C)Oc1ccc(Nc2ncc(Cl)c(NC3CC3)n2)cc1 (centres unmarked) [compound 188], the logP was 1.73*. With CS(=O)(=O)Cc1cccc(Nc2ncc(Cl)c(NC3CC3)n2)c1 [compound 243] the logP was 1.46*. For CC1COC(=O)N1c1cccc(Nc2ncc(Cl)c(NC3CC3)n2)c1 (centres unmarked) [compound 267], the logP was 1.57*. In the case of Clc1cnc(Nc2ccc(-c3nccs3)cc2)nc1NC1CC1 [compound 253], the logP is reported as 2.32*.

Same assay, conditions: HPLC reversed-phase C 18, EEC Directive 79/831 Annex V.A8; method **: 43° C., 0.1% aqueous phosphoric acid and acetonitrile, linear gradient 10% to 95% acetonitrile
In the case of O=c1ccccn1-c1cccc(Nc2ncc(Br)c(NC3CC3)n2)c1 [compound 833], the logP is reported as 1.46**.

Same assay, conditions: HPLC reversed-phase C 18, EEC Directive 79/831 Annex V.A8; method *: 40° C., 0.1% aqueous formic acid and acetonitrile, linear gradient 10% to 95% acetonitrile
With Clc1cnc(Nc2ccccc2)nc1NC1(COc2ccccc2)CC1 [compound 801] the logP was 2.88*. With CCSC(C)c1cccc(Nc2ncc(Br)c(NC3CC3)n2)c1 (centres unmarked) [compound 797] the logP was 3.09*. For O=c1ccccn1-c1cccc(Nc2ncc(Br)c(NC3CC3)n2)c1 [compound 833], the logP was 1.46*;. For COc1cc(CC#N)ccc1Nc1ncc(Br)c(NC2CC2)n1 [compound 818], the logP was 1.99*. In the case of Oc1c(Cl)cc(Nc2ncc(Cl)c(NC3CC3)n2)cc1Cl [compound 845], the logP is reported as 1.99*.

Same assay, conditions: method **: HPLC reversed-phase C 18, 43° C., 0.1% aqueous phosphoric acid and acetonitrile, linear gradient 10% to 95% acetonitrile
For CCCCNS(=O)(=O)c1ccc(Nc2ncc(Cl)c(NC3CC3)n2)cc1 [Example 22], the logP was 2.6**. In the case of CC(=O)c1cccc(Nc2ncc(Cl)c(NCC3CC3)n2)c1 [compound 13], the logP is reported as 1.87**. In the case of Cl.Clc1cnc(Nc2ccccc2)nc1NC1CC1 [Example 29], the logP is reported as 1.75**.

Same assay, conditions: method **: HPLC, reversed-phase C 18, 43° C., mobile phase 0.1% aqueous phosphoric acid and acetonitrile, linear gradient from 10% to 95% acetonitrile
For Clc1cnc(Nc2cccc(Cn3ccnc3)c2)nc1NC1CC1 [compound 1046], the logP was 0.83**. In the case of CC1(C)CC1Nc1nc(Nc2ccccc2)ncc1Cl (centres unmarked) [compound 1027], the logP is reported as 2.37**.

Same assay, conditions: method *: HPLC reversed-phase C18, 40° C., 0.1% aqueous formic acid and acetonitrile, linear gradient 10% to 95% acetonitrile
In the case of CCC(=O)Nc1cccc(Nc2ncc(Br)c(NC3CC3)n2)c1 [compound 381], the logP is reported as 1.54*. In the case of CCOC(=O)Nc1cccc(Nc2ncc(Br)c(NCC3CC3)n2)c1 [compound 428], the logP is reported as 1.99*. With CC(C)(C)OC(=O)N1CCN(c2ccc(Nc3ncc(Cl)c(NC4CC4)n3)cc2)CC1 [compound 7] the logP was 2.4*. For CNC(=O)Oc1cccc(Nc2ncc(Br)c(NC3CC3)n2)c1 [compound 386], the logP was 1.56*. For O=C(Nc1cccc(Nc2ncc(Cl)c(NC3CC3)n2)c1)C1CC1 [Example 84], the logP was 1.62*. With Clc1cnc(Nc2ccccc2)nc1NC1CC1 [Example 76] the logP was 1.84*. For FC(F)(F)c1nc2ccc(Nc3ncc(Cl)c(NC4CC4)n3)cc2[nH]1 [Example 68], the logP was 1.55*. With CC(C)(C)C(=O)Nc1cccc(Nc2ncc(Br)c(NCC3CC3)n2)c1 [compound 451] the logP was 2.06*. With CN(C)S(=O)(=O)c1ccc(Nc2ncc(Cl)c(NC3CC3)n2)cc1.Cl [Example 78] the logP was 2.26*.

Same assay, conditions: method *: HPLC reversed-phase C 18, temperature 40° C.; mobile phase 0.1% aqueous formic acid and acetonitrile; linear gradient 10% to 95% acetonitrile
With CSc1ccc(Nc2ncc(F)c(NC3CC3)n2)cc1 [compound 587] the logP was 1.68*. With CSc1cccc(Nc2ncc(C#N)c(NC3CC3)n2)c1 [compound 609] the logP was 2.92*. In the case of O=C1OCCN1c1ccc(Nc2ncc(F)c(NC3CC3)n2)cc1 [compound 592], the logP is reported as 1.23*. For CCc1cccc(Nc2ncc(Cl)c(NC3CC3)n2)c1 [compound 634], the logP was 2.35*. For CCOC(=O)Nc1ccc(Nc2ncc(F)c(NC3CC3)n2)cc1 [compound 595], the logP was 1.46*. In the case of CN(C)S(=O)(=O)c1ccc(Nc2ncc(F)c(NC3CC3)n2)cc1 [compound 578], the logP is reported as 1.68*. In the case of CS(=O)(=O)c1ccc(Nc2ncc(C#N)c(NC3CC3)n2)cc1 [compound 605], the logP is reported as 1.92*. For CC(=O)c1ccc(Nc2ncc(F)c(NC3CC3)n2)cc1 [compound 590], the logP was 1.53*.

Same assay, conditions: method *: HPLC, reversed-phase C 18, 40° C., mobile phase 0.1% aqueous formic acid and acetonitrile, linear gradient from 10% to 95% acetonitrile
In the case of O=C(c1cccc(Nc2ncc(Cl)c(NC3CC3)n2)c1)N1CCNCC1 [compound 1065], the logP is reported as 0.53*. For CCNC(=O)c1cccc(Nc2ncc(C(F)(F)F)c(NC3CC3)n2)c1 [compound 1031], the logP was 2.07*. With Brc1cnc(Nc2ccccc2)nc1NC1CC1 [compound 1069] the logP was 2.65*. In the case of CCN(C)C(=O)c1cccc(Nc2ncc(Cl)c(NC3CC3)n2)c1 [compound 1060], the logP is reported as 1.56*. In the case of CC1(C)CC1Nc1nc(Nc2ccccc2)ncc1Cl (centres unmarked) [compound 1027], the logP is reported as 2.37*;.

Same assay, conditions: pH 2.3; read-out: logP (pH2.3)
With CCOC1(Nc2nc(Cl)ncc2Cl)CC1 [2,5-Dichloro-N-(1-ethoxycyclopropyl)pyrimidine-4-amine] the chromatographic logP was 2.09.
